From US11058902B2, “Compositions and methods for treating disease associated with permeability of intestinal epithelium” (9 Meters Biopharma, Inc., priority 2017, dated 2021)
Like-named read-outs stand apart in the source and are kept apart here.

What was measured:
claudin 2 = conditions: tissues treated with larazotide
Text: (§1) Yorkshire-cross pigs 6-8-weeks-of-age were anesthetized, followed by midline laparotomy and creation of a series of 10 cm intestinal loops commencing proximal to the ileum by ligating the intestinal lumen. The local mesenteric vasculature was ligated to select treatment loops for 45-min, whereas other loops were left as non-ischemic controls. Loops were subsequently resected, and the mucosal tissues were stripped in oxygenated (95% O2/5% CO2) Ringers from the muscle layers in preparation for ex vivo incubation in Ussing chambers. Tissues were monitored by measuring transepithelial resistance (TER) for 240-min. At the end of a 240-min recovery period, tissues were taken for histology and immunofluorescence evaluation of tight junction proteins.

occludin = conditions: tissues treated with larazotide
Text: as §1

celiac disease symptoms = conditions: clinical trials, cited from earlier work
[1] = test system: ischemic-injured porcine jejunum; assay: Recovery of barrier function (transepithelial resistance, TER) in ischemic-injured porcine jejunum mucosa ex vivo in Ussing chambers; assay type: cell-based, Yorkshire-cross pigs; conditions: fragment added together with larazotide
Text: Intestinal epithelial tight junction integrity is crucial to maintain an intact intestinal barrier against noxious luminal contents. […] Porcine mucosa injured by ischemia/reperfusion injury is abnormally permeable until interepithelial tight junctions have re-assembled.
as §1

tight junction = assay: Activity as tight junction regulators (larazotide fragments, alone or mixed with larazotide); conditions: for activity as tight junction regulators: fragment alone
Text: In various embodiments, the methods of the invention comprise treating a subject with larazotide or derivative thereof. Larazotide is a peptide agent that promotes tight junction integrity in the gastrointestinal tract (GI). […] See US 2016/0022760, which is hereby incorporated by reference in its entirety. […] In accordance with this disclosure, it is believed that an aminopeptidase located within the brush borders of the lumen surface may create larazotide-derived fragments, including fragments missing N-terminal glycine residues.

Gly Gly Val Leu Val Gin Pro Gly [larazotide]
pore (leak)-forming tight junction protein claudin 2 (claudin 2): reductions
localization of the tight junction sealing protein occludin (occludin): increased localization
reducing celiac disease symptoms (celiac disease symptoms; higher doses (e.g., 1 mg and 2 mg doses)): attenuation of activity, or no activity at all
reducing celiac disease symptoms (celiac disease symptoms; lower doses (e.g., 0.5 mg dose)): benefit at reducing celiac disease symptoms

VLVQPG [larazotide-derived fragment missing N-terminal glycine residues]
effect of larazotide in the presence of the fragment [1]: blocked
activity as tight junction regulators (tight junction): inactive
activity of full length larazotide when mixed with the two fragments (tight junction): completely abolished

GVLVQPG [larazotide-derived fragment missing an N-terminal glycine residue]
effect of larazotide in the presence of the fragment [1]: blocked
activity as tight junction regulators (tight junction): inactive
activity of full length larazotide when mixed with the two fragments (tight junction): completely abolished
